According to US12655437B2, “Compositions and methods for modulating the gastrointestinal tract using bile salt hydrolases” (North Carolina State University, priority 2019, dated 2026):

Columns and labels:
L. acidophilus ΔbshAB = assay: Growth of L. acidophilus bsh mutants in MRS media supplemented with bile acids; assay type: cell-based, Lactobacillus acidophilus
Protocol: FIG. 12: L. acidophilus bshA and bshB contribute to bile acid detoxification in a substrate dependent manner. Growth of BSH mutants in the presence of bile acids. To evaluate the role of BSH activity during L. acidophilus growth, single and double BSH mutants were grown in MRS media supplemented with bile acids and growth was measured by OD600 nm.
FIGS. 13A-13G: L. acidophilus bshA and bshB contribute to bile acid detoxification in a substrate and concentration dependent manner.
FIGS. 12-14 include representative results of experiments conducted to evaluate the role of BSH activity during L. acidophilus growth. […] The L. acidophilus strains with deletion in bshA, bshB, and bshAB were tested in plate assays and growth curves were determined. The ΔbshA, ΔbshB, and ΔbshAB L. acidophilus and L. gasseri strains were grown in the presence of conjugated bile acids to test BSH contributions to bile acid detoxification. FIG. 12 provides growth curves of L. acidophilus mutants grown in a variety of bile acid concentrations. As shown, single and double BSH mutants (ΔbshA and ΔbshB) were grown in MRS media supplemented with bile acids.
(§1) Error bars represent s.d. from n=4 independent experiments. Dashed lined denotes the approximate starting CFUs/mL at 0 h. Exogenous recombinant LaBSHa and LaBSHb (LaBSHab) or LgBSHa and LgBSHb (LgBSHab) were supplemented to cultures in equimolar amounts to L. acidophilus ΔbshAB or L. gasseri ΔbshAB growths to functionally complement ΔbshAB strains.

L. gasseri ΔbshAB = assay: Growth of L. gasseri bsh mutants in MRS media supplemented with bile acids; assay type: cell-based, Lactobacillus gasseri
Protocol: as §1, with “bars represent standard deviation (s.d.) from n=4” for “bars represent s.d. from n=4”, “amounts to (A) L. acidophilus” for “amounts to L. acidophilus”, “ΔbshAB or (B) L. gasseri” for “ΔbshAB or L. gasseri”
The L. acidophilus strains with deletion in bshA, bshB, and bshAB were tested in plate assays and growth curves were determined. The ΔbshA, ΔbshB, and ΔbshAB L. acidophilus and L. gasseri strains were grown in the presence of conjugated bile acids to test BSH contributions to bile acid detoxification. FIG. 12 provides growth curves of L. acidophilus mutants grown in a variety of bile acid concentrations.

C. difficile [1] = conditions: cited from earlier work
C. difficile [2] = assay: Growth of C. difficile anaerobically in BHIS medium supplemented with bile acids and purified BSH; assay type: cell-based, Clostridioides difficile; conditions: BHIS media supplemented with the bile acid alone
Protocol: FIGS. 22A-22C: BSH specificity can leveraged to inhibit Clostridioides difficile in a conjugated bile acid substrate-dependent manner. (A) Recombinantly expressed and purified L. johnsonii BSHs were assayed for deconjugation with GCDCA and TCDCA. Specific activities for each BSH were determined by quantifying the rate of amino acid release by Ninhydrin assay. (B, C) Growth of C. difficile anaerobically in BHIS medium supplemented with GCDCA, TCDCA, or CDCA in combination with purified LjoBSHa or LjoBSHc.
As shown in FIGS. 9-11, recombinant BHSs were overexpressed and purified to homogeneity, and experiments were conducted to evaluate their activity. Two recombinant BSH enzymes were used for this assay. […] TCDCA was chosen as a conjugated bile acid to be used in the growth assays due to C. difficile's sensitivity to the CDCA that is released from BSH activity. […] A high dosage of LjoBSHa is needed to overcome its catalytic deficiency (FIG. 9).
TCDCA was chosen as a conjugated bile acid to be used in this growth (FIGS. 22B-22C) assay due to C. difficile's sensitivity to the CDCA that is released from BSH activity. […] A high dosage of LjoBSHa is needed to overcome its catalytic deficiency.

Compound	growth of L. acidophilus ΔbshAB (L. acidophilus ΔbshAB; 2.5 mM bile acid in MRS)	C. difficile growth (C. difficile [2])	growth of L. acidophilus ΔbshAB (L. acidophilus ΔbshAB; 5 mM bile acid in MRS)	other results
C[C@H](CCC(=O)NCC(=O)O)[C@H]1CC[C@H]2[C@@H]3[C@H](O)C[C@@H]4C[C@H](O)CC[C@]4(C)[C@H]3CC[C@]12C [GCDCA, glycochendeoxycholate]	significantly inhibited	–	–	growth of L. gasseri ΔbshAB (L. gasseri ΔbshAB; 2.5 mM bile acid in MRS): significantly inhibited
C[C@H](CCC(=O)NCC(=O)O)[C@H]1CC[C@H]2[C@@H]3CC[C@@H]4C[C@H](O)CC[C@]4(C)[C@H]3C[C@H](O)[C@]12C [GDCA, glycodeoxycholate]	significantly inhibited	–	–	growth of L. gasseri ΔbshAB (L. gasseri ΔbshAB; 1.25 mM bile acid in MRS): significantly inhibited
C[C@H](CCC(=O)O)[C@H]1CC[C@H]2[C@@H]3[C@H](O)C[C@@H]4C[C@H](O)CC[C@]4(C)[C@H]3CC[C@]12C [CDCA, chendeoxycholate]	–	complete inhibition	–	C. difficile spore germination (C. difficile [1]): inhibits; C. difficile vegetative cells (C. difficile [1]): kills
C[C@H](CCC(=O)NCCS(=O)(=O)O)[C@H]1CC[C@H]2[C@@H]3CC[C@@H]4C[C@H](O)CC[C@]4(C)[C@H]3C[C@H](O)[C@]12C [TDCA, taurodeoxycholate]	–	–	significantly inhibited	–
C[C@H](CCC(=O)NCC(=O)O)[C@H]1CC[C@H]2[C@@H]3[C@H](O)C[C@@H]4C[C@H](O)CC[C@]4(C)[C@H]3C[C@H](O)[C@]12C [GCA, glycocholate]	–	–	less inhibited	growth of L. gasseri ΔbshAB (L. gasseri ΔbshAB; 5 mM bile acid in MRS): significantly less inhibited
C[C@H](CCC(=O)NCCS(=O)(=O)O)[C@H]1CC[C@H]2[C@@H]3[C@H](O)C[C@@H]4C[C@H](O)CC[C@]4(C)[C@H]3CC[C@]12C [TCDCA, taurochendeoxycholate]	–	no inhibition of growth	less inhibited	effect on C. difficile (C. difficile [1]; bile acid alone): does not affect C. difficile
